Test results taken from article PMC9818021, “Targets, Mechanisms and Cytotoxicity of Half-Sandwich Ir(III) Complexes Are Modulated by Structural Modifications on the Benzazole Ancillary Ligand” (Cancers, 2022).

Experiments:
A549 cells = assay: ATP levels (Cell Titer-Glo); assay type: cell-based, human; conditions: 16 µM, 8 h incubation
Method: DNA damage was measured using EpiQuik 8-OHdG DNA Damage Quantification Direct Kit (colorimetric) (Fischer, Waltham, MA, USA, P600396); The mitochondrial cytochrome C release was evaluated using the “Millipore’s FlowCellect Cytochrome C Kit (Millipore, FCCH100110)”. Lactate dehydrogenase activity release was measured in the culture medium using Cytotoxicity Detection Kit (Roche Diagnostic, Barcelona, Spain, 11 644 793 001). Protein synthesis was determined using Click-iT Plus O-propargyl-puromycin (OPP) Protein Synthesis Assay Kit (Invitrogen™, Waltham, MA, USA). Measurement of GSH/GSSG was determined with GSH/GSSG-Glo Assay (Promega, V6611). Measurements of OCR and ECAR with Seahorse XFp (Agilent Technologies) were determined using the XFp Cell Mito Stress Test Kit (103010-100) and XFp Glycolysis Stress Test Kit (103017-100). ATP measurement was determined with Cell Titer-Glo Luminescent Cell Viability Assay (Promega, Madison, WI, USA, G7570). Determination of DNA damage using phosphorylated H2AX measurement were performed as previously described. Cardiolipin oxidation using the fluorophore Nonyl Acridine Orange (NAO, Thermo Scientific, A1372) was performed as described. Cell viability was determined by Hoechst inclusion and Propidium iodide (PI) exclusion by standard protocols. TEM analysis were performed as described. […]

caspases 3/7 = assay: Caspase 3/7 detection (CellEvent); assay type: cell-based, human; conditions: A549, 16 µM, up to 24 h
Method: Specific assays with 1[C,NH] complex were performed according to manufacturer’s instructions using the following reagents from Molecular Probes (Thermo Fisher Scientific): Measurements of ROS: Dihydroethidium (DHE, D11347) and 2′, 7′-dichlorodihydrofluorescein diacetate (H2DCFDA, D399); detection of caspases 3/7: CellEvent Caspase-3/7 Green Detection Reagent (C10423); Cell viability: Live/Dead Cell Imaging Kit (R37601); Analysis of cytosolic calcium concentration: Fluo3/AM (F23915); Analysis of MMP: Tetramethylrhodamine methyl ester perchlorate (TMRM, T668). RT-qPCR’s assays were performed with the following primers/probes from Thermo Fisher Scientific: DCP1A (Hs00218198-m1), FOSB (Hs00171851-m1), EGR1(Hs0015928-m1), ATF3 (Hs00231069-m1), DDIT3 (Hs00358796-g1), PP1R15A (Hs00169585-m1), CHAC1(Hs00225520-m1), MIR9-1 (Hs04231512-s1), ATP1B2 (Hs00155922-m1), BBC3 (Hs00248075-m1), BCL2L11 (Hs00798019-s1), PMAIP1 (Hs00560402-m1), SKP2 (Hs01021864-m1) and HIST1H1B (Hs00271207-s1). RT-qPCR experiments were performed as described.

## Cc1c(C)c(C)[c-](C)c1C.[Cl][Ir]1[c]2ccccc2-c2[nH]c3ccccc3[n+]21 [1[C,NH], [(η^5-Cp*)IrCl(κ^2-N,C-pbim)]]
A549 cells
  Decrease on ATP levels: around 35%
Caspases 3/7
  Caspase 3/7 activity: induced caspase 3/7 activation
